17 compounds from ChEMBL document CHEMBL4002641, “Indolyl-naphthyl-maleimides as potent and selective inhibitors of protein kinase C-α/β” (Bioorg Med Chem Lett, 2017) can be followed below.

Molecules are shown by their SMILES. pIC50, pKi: −log10 of the molar value. A value given as a limit tells only on which side of the number the result lay.

For data set [1], the target named is Protein kinase C eta type (Homo sapiens, UniProt P24723). The data set is described as follows: Inhibition of PKCeta (unknown origin) after 60 mins in presence of [gamma33P]ATP by scintillation proximity assay. For orientation: Scintillation proximity formats need no separation of bound from free tracer.
Protein kinase C eta type, sequence (P24723 whole entry): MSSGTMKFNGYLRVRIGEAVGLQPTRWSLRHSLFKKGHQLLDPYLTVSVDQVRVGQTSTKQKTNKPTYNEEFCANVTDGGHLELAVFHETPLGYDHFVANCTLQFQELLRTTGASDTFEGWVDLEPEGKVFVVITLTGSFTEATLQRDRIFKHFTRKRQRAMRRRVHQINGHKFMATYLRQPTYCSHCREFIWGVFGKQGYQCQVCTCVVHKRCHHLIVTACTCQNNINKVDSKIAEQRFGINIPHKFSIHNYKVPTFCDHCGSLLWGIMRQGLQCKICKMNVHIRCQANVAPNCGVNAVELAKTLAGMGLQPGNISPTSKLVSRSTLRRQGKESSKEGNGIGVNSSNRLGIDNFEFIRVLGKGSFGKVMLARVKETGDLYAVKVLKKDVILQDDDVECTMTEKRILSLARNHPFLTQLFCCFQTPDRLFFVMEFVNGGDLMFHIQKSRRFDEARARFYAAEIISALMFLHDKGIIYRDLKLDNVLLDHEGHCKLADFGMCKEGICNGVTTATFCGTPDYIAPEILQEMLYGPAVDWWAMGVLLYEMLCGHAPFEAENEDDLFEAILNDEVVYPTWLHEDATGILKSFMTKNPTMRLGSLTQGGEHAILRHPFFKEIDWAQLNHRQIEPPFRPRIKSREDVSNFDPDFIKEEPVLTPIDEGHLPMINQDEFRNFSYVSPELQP
Data set [2] deals with T1, Protein kinase C alpha type (Homo sapiens, UniProt P17252). The data set is described as follows: Inhibition of PKCalpha (unknown origin) after 60 mins in presence of [gamma33P]ATP by scintillation proximity assay.
The target in data set [3] is T2, Protein kinase C beta type (Homo sapiens, UniProt P05771). The data set is described as follows: Inhibition of PKCbeta1 (unknown origin) after 60 mins in presence of [gamma33P]ATP by scintillation proximity assay.
T2 sequence (P05771 whole entry): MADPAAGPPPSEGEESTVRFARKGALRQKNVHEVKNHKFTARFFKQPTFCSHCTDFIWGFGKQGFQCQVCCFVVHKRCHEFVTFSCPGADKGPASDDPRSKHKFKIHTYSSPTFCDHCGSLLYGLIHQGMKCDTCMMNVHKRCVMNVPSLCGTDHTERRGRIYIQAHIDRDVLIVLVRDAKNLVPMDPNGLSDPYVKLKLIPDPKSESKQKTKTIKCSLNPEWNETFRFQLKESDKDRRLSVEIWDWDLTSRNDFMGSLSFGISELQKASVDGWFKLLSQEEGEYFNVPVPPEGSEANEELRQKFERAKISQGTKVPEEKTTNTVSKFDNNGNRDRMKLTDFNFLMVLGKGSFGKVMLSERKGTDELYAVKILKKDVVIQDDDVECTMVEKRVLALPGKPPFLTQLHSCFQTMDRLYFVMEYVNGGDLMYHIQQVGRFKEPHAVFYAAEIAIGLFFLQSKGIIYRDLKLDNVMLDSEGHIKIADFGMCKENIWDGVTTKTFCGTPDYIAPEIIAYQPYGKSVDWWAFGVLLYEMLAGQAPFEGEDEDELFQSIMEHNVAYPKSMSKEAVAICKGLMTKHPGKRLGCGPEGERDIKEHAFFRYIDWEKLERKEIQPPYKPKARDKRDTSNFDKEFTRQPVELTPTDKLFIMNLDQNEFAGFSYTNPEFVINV
For data set [4], the target named is Protein kinase C delta type (Homo sapiens, UniProt Q05655). The data set is described as follows: Inhibition of PKCdelta (unknown origin) after 60 mins in presence of [gamma33P]ATP by scintillation proximity assay.
Protein kinase C delta type, sequence (Q05655 whole entry): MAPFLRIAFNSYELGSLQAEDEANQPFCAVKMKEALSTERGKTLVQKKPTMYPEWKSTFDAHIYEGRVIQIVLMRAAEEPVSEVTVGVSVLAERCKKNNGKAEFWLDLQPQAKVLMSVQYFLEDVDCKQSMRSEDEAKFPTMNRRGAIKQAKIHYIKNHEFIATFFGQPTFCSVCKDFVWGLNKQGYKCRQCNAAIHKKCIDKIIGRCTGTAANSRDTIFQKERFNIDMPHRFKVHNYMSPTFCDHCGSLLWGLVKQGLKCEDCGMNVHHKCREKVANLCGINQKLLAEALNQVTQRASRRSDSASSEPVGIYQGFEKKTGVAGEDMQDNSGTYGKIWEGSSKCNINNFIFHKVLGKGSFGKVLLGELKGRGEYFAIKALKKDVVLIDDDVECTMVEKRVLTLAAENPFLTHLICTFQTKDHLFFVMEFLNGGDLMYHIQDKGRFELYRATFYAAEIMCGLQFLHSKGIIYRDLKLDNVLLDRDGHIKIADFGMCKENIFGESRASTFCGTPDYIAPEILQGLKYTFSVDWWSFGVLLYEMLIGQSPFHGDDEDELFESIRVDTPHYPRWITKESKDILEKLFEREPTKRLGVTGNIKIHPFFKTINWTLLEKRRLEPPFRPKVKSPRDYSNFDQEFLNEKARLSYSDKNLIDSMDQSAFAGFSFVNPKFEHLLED
Data set [5] concerns the target T3, Protein kinase C epsilon type (Homo sapiens, UniProt Q02156).
T3 sequence (Q02156 whole entry): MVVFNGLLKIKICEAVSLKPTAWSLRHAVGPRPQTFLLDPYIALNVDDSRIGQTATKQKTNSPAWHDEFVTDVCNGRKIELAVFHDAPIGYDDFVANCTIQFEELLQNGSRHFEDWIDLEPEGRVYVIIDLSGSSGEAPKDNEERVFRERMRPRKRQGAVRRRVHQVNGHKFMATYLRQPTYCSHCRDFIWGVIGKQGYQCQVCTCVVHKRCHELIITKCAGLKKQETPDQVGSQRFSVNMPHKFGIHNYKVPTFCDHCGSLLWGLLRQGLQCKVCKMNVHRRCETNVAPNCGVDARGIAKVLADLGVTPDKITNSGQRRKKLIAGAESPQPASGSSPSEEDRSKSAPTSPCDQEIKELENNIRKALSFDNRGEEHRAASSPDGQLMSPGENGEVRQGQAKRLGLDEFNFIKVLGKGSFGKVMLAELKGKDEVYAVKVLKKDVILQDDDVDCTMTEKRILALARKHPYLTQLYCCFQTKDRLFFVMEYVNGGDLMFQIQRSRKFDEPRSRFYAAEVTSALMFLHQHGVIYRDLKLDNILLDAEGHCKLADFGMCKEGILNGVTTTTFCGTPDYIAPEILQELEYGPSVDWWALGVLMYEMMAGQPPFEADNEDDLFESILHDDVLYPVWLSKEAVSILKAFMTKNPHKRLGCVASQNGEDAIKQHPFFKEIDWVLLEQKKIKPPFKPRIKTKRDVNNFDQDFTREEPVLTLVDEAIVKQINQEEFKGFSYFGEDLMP
The data set is described as follows: Inhibition of PKCepsilon (unknown origin) after 60 mins in presence of [gamma33P]ATP by scintillation proximity assay.

Data set [6] concerns the target T4, Protein kinase C theta type (Homo sapiens, UniProt Q04759). The data set is described as follows: Inhibition of PKCtheta (unknown origin) after 60 mins in presence of [gamma33P]ATP by scintillation proximity assay.
Data set [7] concerns the target T4, Protein kinase C theta type. The data set is described as follows: Inhibition of PKCtheta in human Jurkat T cells assessed as reduction in anti-CD3/CD28 antibody-induced T-cell activation by measuring decrease in IL-2 secretion after 5 hrs by luciferase reporter gene assay. Type of data set: cell-based. On the technique in general: A reporter such as luciferase makes a cellular process visible.

The subject of the next data set is PBMC. The data set is described as follows: Inhibition of human PBMC proliferation assessed as decrease in [3H]-TdR uptake after 6 days by mixed lymphocyte reaction assay. In kind it is functional, cell-based.
Data set [8] is described as follows: Aqueous solubility of the compound. The note with it: buffer. Type of data set: physicochemical.
Data set [9] deals with T1, Protein kinase C alpha type. The data set is described as follows: Reversible competitive inhibition of PKCalpha (unknown origin).
Data set [10] has as its target T2, Protein kinase C beta type. The data set is described as follows: Reversible competitive inhibition of PKCbeta1 (unknown origin).
Data set [11] has as its target T5, Cyclin-dependent kinase 2 (Homo sapiens, UniProt P24941). The data set is described as follows: Inhibition of CDK2 (unknown origin) at 1 uM.
Data set [12] addresses T5, Cyclin-dependent kinase 2. The data set is described as follows: Inhibition of CDK2 (unknown origin).

T4 sequence (Q04759 whole entry): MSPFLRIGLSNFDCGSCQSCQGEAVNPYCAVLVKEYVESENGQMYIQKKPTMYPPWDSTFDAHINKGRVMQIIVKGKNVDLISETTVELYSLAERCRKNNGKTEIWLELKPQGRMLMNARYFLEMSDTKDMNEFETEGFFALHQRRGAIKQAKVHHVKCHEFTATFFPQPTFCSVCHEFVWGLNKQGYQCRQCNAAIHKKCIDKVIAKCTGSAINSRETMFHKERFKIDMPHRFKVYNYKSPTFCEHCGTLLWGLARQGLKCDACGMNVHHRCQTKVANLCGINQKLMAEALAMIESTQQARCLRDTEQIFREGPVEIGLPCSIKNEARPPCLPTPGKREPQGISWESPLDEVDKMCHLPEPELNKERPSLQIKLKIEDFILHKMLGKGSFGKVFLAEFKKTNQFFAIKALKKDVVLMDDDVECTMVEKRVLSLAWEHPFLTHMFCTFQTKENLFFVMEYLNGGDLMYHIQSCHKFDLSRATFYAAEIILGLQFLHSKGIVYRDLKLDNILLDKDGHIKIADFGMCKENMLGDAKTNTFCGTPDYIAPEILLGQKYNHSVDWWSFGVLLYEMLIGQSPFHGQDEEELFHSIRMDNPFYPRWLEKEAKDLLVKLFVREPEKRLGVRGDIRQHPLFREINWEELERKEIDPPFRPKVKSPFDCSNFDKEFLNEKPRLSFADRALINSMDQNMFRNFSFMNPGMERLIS

Consider `CNCc1ccc2ccc(Cl)c(C3=C(c4cn(C)c5ccccc45)C(=O)NC3=O)c2c1`, for which the negative-log IC50 (pIC50) – broadly, −log10 of the IC50, conventionally taken in molar units – in [1] was 7.47; in data set [2] it was 9.30; in data set [3], 8.85; in [4], 7.82; in data set [5] it was 7.52; in data set [6] it was 7.68.
In the case of `CN(C)Cc1ccc2ccc(Cl)c(C3=C(c4c[nH]c5ccccc45)C(=O)NC3=O)c2c1`, the pIC50 in data set [1] is 6.50; in data set [2], 9.30; in data set [3], 9.15; in data set [4], 6.52; in data set [5] it was 6.74; in data set [6] it was 6.67. In addition, the negative-log IC50 (pIC50) was 6.15 in data set [7] and 6.39 in the data set with PBMC. In addition, the solubility entry in data set [8] is on record as “Insoluble”.
In the case of `NCc1ccc2cccc(C3=C(c4c[nH]c5ccccc45)C(=O)NC3=O)c2c1`, the negative logarithm of the IC50 (pIC50) in data set [1] is less than 6.50; in data set [2], 7.44; in data set [3], 7.12; in [4] it was less than 6.50; in data set [5], less than 6.50; in [6], less than 6.50.
`CC(=O)N(C)Cc1ccc2ccc(Cl)c(C3=C(c4cn(C)c5ccccc45)C(=O)NC3=O)c2c1`: the negative-log IC50 (pIC50) in data set [1] was less than 6.50; in [2] it was 7.20; in data set [3], 7.39; in data set [4], 6.55; in data set [5], less than 6.50; in data set [6] it was less than 6.50.
As for `Cn1cc(C2=C(c3cccc4cc(CN)ccc34)C(=O)NC2=O)c2ccccc21`, the pIC50 in data set [1] is 6.51; in [2] it was 6.87; in data set [3] it was 6.88; in [4], 7.04; in data set [5], 6.65; in [6], 6.56.
Take `CN(C)Cc1ccc2c(C3=C(c4c[nH]c5ccccc45)C(=O)NC3=O)c(Cl)ccc2c1`: the pIC50 in data set [2] is 8.74; in data set [3], 8.47; in data set [5], 8.37; in data set [6], 7.92; in data set [7], 6.81; with PBMC, 7.23. Further, the solubility result in data set [8] is given as “Insoluble”.
Consider `Cn1cc(C2=C(c3cccc4ccc(CN)cc34)C(=O)NC2=O)c2ccccc21`, for which the pIC50 in data set [1] is less than 6.50; in data set [2], 7.14; in data set [3], 7.03; in data set [4] it was less than 6.50; in data set [5], less than 6.50; in [6] it was less than 6.50.
`Cc1ccc2ccc(CN)cc2c1C1=C(c2c[nH]c3ccccc23)C(=O)NC1=O`: the negative-log IC50 (pIC50) in [1] was less than 6.50; in data set [2], 7.31; in data set [3] it was 7.37; in data set [4], less than 6.50; in data set [5], less than 6.50; in data set [6], less than 6.50.
In the case of `Cn1cc(C2=C(c3c(Cl)ccc4ccc(CN)cc34)C(=O)NC2=O)c2ccccc21`, the negative-log IC50 (pIC50) was less than 6.50 in data set [1]; 8.33 in [2]; 8.48 in [3]; 6.60 in data set [4]; less than 6.50 in data set [5]; less than 6.50 in data set [6].
Take `CN(C)Cc1ccc2ccc(Cl)c(C3=C(c4cn(C)c5ccccc45)C(=O)NC3=O)c2c1`: the pIC50 in data set [1] is 6.25; in data set [2] it was 8.40; in [3], 8.43; in data set [4], 6.67; in data set [5] it was 6.40; in data set [6], 6.58. Moreover, the negative-log IC50 (pIC50) in [12] was 6.66; in [7] it was 6.40; in the data set with PBMC, 6.56. Besides, the figures for the pKi in data set [9] and in data set [10] were 9.00 and 9.30, respectively. In addition, in data set [11], the inhibition (usually how much of the control response was suppressed) is greater than 50%. For the same compound, in data set [8], the solubility result is on record as “Insoluble”.
Regarding `CN(Cc1ccc2ccc(Cl)c(C3=C(c4cn(C)c5ccccc45)C(=O)NC3=O)c2c1)C1CC1`, the pIC50 in [1] is less than 6.50; in data set [2], 7.20; in data set [3], 7.22; in [4] it was less than 6.50; in [5], less than 6.50; in [6] it was less than 6.50. In addition, the negative logarithm of the IC50 (pIC50) in data set [7] is less than 5.45. In data set [8], the solubility result was “Insoluble”.
`Cn1cc(C2=C(c3c(Cl)ccc4ccc(CN5CCC5)cc34)C(=O)NC2=O)c2ccccc21`: the pIC50 in [1] was 6.50; in data set [2] it was 8.47; in data set [3], 8.70; in data set [4], 6.64; in [5], 6.65; in [6], 6.60.
Consider `Cc1ccc2ccc(CN)cc2c1C1=C(c2cn(C)c3ccccc23)C(=O)NC1=O`, for which the negative logarithm of the IC50 (pIC50) was less than 6.50 in [1]; 7.02 in data set [2]; 7.38 in data set [3]; less than 6.50 in [4]; less than 6.50 in data set [5]; less than 6.50 in data set [6].
Regarding `COCCNCc1ccc2ccc(Cl)c(C3=C(c4cn(C)c5ccccc45)C(=O)NC3=O)c2c1`, the pIC50 in [1] is 6.69; in [2], 8.55; in data set [3], 8.51; in data set [4] it was 7.41; in data set [5] it was 6.96; in [6], 7.68.
Take `CN(C)Cc1ccc2c(C3=C(c4cn(C)c5ccccc45)C(=O)NC3=O)c(Cl)ccc2c1`: the pIC50 in data set [1] was 7.52; in [2], 8.43; in data set [3], 8.17; in [4], 7.77; in data set [5], 7.74; in data set [7], 6.73. The pIC50 in the data set on PBMC was 7.27. Besides, in data set [8], the solubility result was “Insoluble”.
As for `CC(C)NCc1ccc2ccc(Cl)c(C3=C(c4cn(C)c5ccccc45)C(=O)NC3=O)c2c1`, the pIC50 was 6.74 in data set [1]; 8.57 in [2]; 8.54 in [3]; 7.10 in data set [4]; 7.14 in data set [5]; 7.00 in data set [6].
With `CN1CCN(c2nc(C3=C(c4c[nH]c5ccccc45)C(=O)NC3=O)c3ccccc3n2)CC1` [SOTRASTAURIN], the pIC50 in data set [7] is 7.09; in the data set with PBMC it was 7.55.
